Data reported in ChEMBL document CHEMBL1201862, “PubChem BioAssay data set” (2004).
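Five compound concentrations were applied to cells in 96-well plates for 48 hours; endpoints were derived by simple linear interpolation of the resulting dose-response curve. The concentration for 50% growth inhibition is given as GI50.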 Active and inactive are the calls of the source. Cut-off read from the data, not from the text of the source: active = GI50 up to about 1.1 µM and inactive = higher.

How the values were obtained:
Assay in all cases: DTP human tumour cell line panel, 48 h
SK-MEL-28 = system: SK-MEL-28
SK-MEL-5 = system: SK-MEL-5
M14 = system: M14
HL-60 = system: HL-60
UACC-62 = system: UACC-62
SF-539 = system: SF-539
SK-MEL-2 = system: SK-MEL-2
786-0 = system: 786-0
HOP-62 = system: HOP-62
HOP-92 = system: HOP-92
SF-268 = system: SF-268
K562 = system: K562
CCRF-CEM = system: CCRF-CEM
U-251 = system: U-251
A549 = system: A549
A498 = system: A498
IGROV-1 = system: IGROV-1
SW-620 = system: SW-620
OVCAR-4 = system: OVCAR-4
HCC 2998 = system: HCC 2998

Measured: GI50

NC(=S)N/N=C/c1c[nH]c2ccccc12
inactive: SK-MEL-28 > 100 µM | SK-MEL-5 > 100 µM | M14 > 100 µM | HL-60 33.7 µM | UACC-62 > 100 µM | SF-539 > 100 µM | SK-MEL-2 > 100 µM | 786-0 > 100 µM | HOP-62 > 100 µM | HOP-92 21.6 µM | SF-268 > 100 µM | K562 > 100 µM | CCRF-CEM 10.8 µM | U-251 > 100 µM | A549 > 100 µM | A498 > 100 µM | IGROV-1 > 100 µM | SW-620 > 100 µM | OVCAR-4 > 100 µM

CC1(C)CCc2cc3c(cc2O1)OCC1c2cc4c(cc2OC31)OCO4 (stereo not given)
inactive: SK-MEL-5 39.9 µM | M14 > 100 µM | HL-60 35.5 µM | HCC 2998 > 100 µM | UACC-62 > 100 µM | SF-539 > 100 µM | 786-0 > 100 µM | HOP-62 > 100 µM | HOP-92 > 100 µM | SF-268 > 100 µM | K562 71.1 µM | CCRF-CEM > 100 µM | U-251 > 100 µM | A549 > 100 µM | A498 > 100 µM | IGROV-1 > 100 µM | SW-620 > 100 µM | OVCAR-4 > 100 µM

CC(C)(C)C1=CC(C)(n2[nH]c(=O)n(-c3ccccc3)c2=O)C=C(C(C)(C)C)C1=O
inactive: SK-MEL-28 > 100 µM | SK-MEL-5 > 100 µM | HCC 2998 > 100 µM | UACC-62 75.3 µM | SF-539 > 100 µM | SK-MEL-2 > 100 µM | 786-0 > 100 µM | HOP-92 > 100 µM | SF-268 > 100 µM | K562 47 µM | U-251 > 100 µM | A549 > 100 µM | A498 > 100 µM | SW-620 > 100 µM | OVCAR-4 > 100 µM

C[N+]1(C)C/C(=C\c2ccncc2)C(=O)/C(=C/c2ccncc2)C1
inactive: SK-MEL-28 > 100 µM | SK-MEL-5 > 100 µM | M14 > 100 µM | HL-60 24.8 µM | HCC 2998 > 100 µM | UACC-62 > 100 µM | SF-539 > 100 µM | 786-0 > 100 µM | HOP-62 > 100 µM | HOP-92 > 100 µM | SF-268 25.2 µM | CCRF-CEM 37.1 µM | U-251 85.5 µM | A549 > 100 µM | A498 > 100 µM | IGROV-1 > 100 µM | SW-620 52.7 µM | OVCAR-4 > 100 µM

NC(=O)c1cc(-c2ccc(-n3ccnc3)cc2)nnc1O
inactive: SK-MEL-28 > 100 µM | SK-MEL-5 > 100 µM | M14 > 100 µM | HL-60 > 100 µM | HCC 2998 > 100 µM | UACC-62 > 100 µM | SF-539 > 100 µM | 786-0 > 100 µM | HOP-62 > 100 µM | HOP-92 > 100 µM | SF-268 > 100 µM | CCRF-CEM > 100 µM | U-251 > 100 µM | A549 > 100 µM | A498 > 100 µM | IGROV-1 > 100 µM | SW-620 > 100 µM | OVCAR-4 > 100 µM

COc1ccc(C2CC(c3ccc4ccccc4c3O)=NN2)cc1OC (stereo not given)
inactive: SK-MEL-28 76.4 µM | SK-MEL-5 58.5 µM | M14 66.2 µM | HCC 2998 45.6 µM | UACC-62 42.4 µM | SF-539 31.3 µM | SK-MEL-2 52 µM | 786-0 37.8 µM | HOP-62 54.6 µM | HOP-92 > 100 µM | SF-268 47.5 µM | K562 21.7 µM | CCRF-CEM 14.9 µM | U-251 44.1 µM | A549 38 µM | A498 52.6 µM | IGROV-1 83.4 µM | SW-620 39.7 µM | OVCAR-4 92.7 µM

CC(=O)OCC(C)C1=C(O)C(=O)C2(C)C/C=C(/C)CC/C=C(\C)CCC(O)C(C)CCC12 (stereo not given)
inactive: SK-MEL-28 16.7 µM | SK-MEL-5 17.7 µM | M14 17.8 µM | HL-60 17.5 µM | UACC-62 18.8 µM | SF-539 16.3 µM | SK-MEL-2 20.7 µM | 786-0 16.9 µM | HOP-62 17 µM | HOP-92 18 µM | SF-268 18 µM | K562 14.1 µM | CCRF-CEM 21.5 µM | U-251 17 µM | A549 18 µM | A498 21.6 µM | IGROV-1 15.2 µM | SW-620 19.2 µM | OVCAR-4 17.5 µM

O=C1C2=Cc3ccccc3OC2(O)Oc2ccccc21 (stereo not given)
inactive: SK-MEL-28 > 100 µM | SK-MEL-5 > 100 µM | M14 > 100 µM | HCC 2998 > 100 µM | UACC-62 > 100 µM | SF-539 > 100 µM | SK-MEL-2 > 100 µM | 786-0 > 100 µM | HOP-62 > 100 µM | HOP-92 > 100 µM | SF-268 > 100 µM | K562 57.8 µM | CCRF-CEM > 100 µM | U-251 > 100 µM | A549 > 100 µM | A498 > 100 µM | IGROV-1 > 100 µM | SW-620 > 100 µM | OVCAR-4 > 100 µM
